The record followed here is patent US11325899B2, “Benzofurane and benzothiophene derivatives as PGE2 receptor modulators” (IDORSIA PHARMACEUTICALS LTD, priority 2017, dated 2022).

What all share (assay type): cell-based
One assay addresses T1, PTGER2 (EP2) (Homo sapiens, UniProt P43116).
T1 construct: host or cells: HEK 293 (PathHunter PTGER2 b-arrestin cell line)
The assay can be described thus: hEP2 b-arrestin assay (PathHunter HEK 293 PTGER2 b-arrestin cells). The settings on record: antagonistic activity, beta-arrestin assay; read-out: hEP2 b-arr IC50. In a few lines:
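Antagonism measured as inhibition of PGE2-driven β-arrestin 2 recruitment (enzyme fragment complementation, luminescence) in engineered HEK293 EP2 cells. Agonist: 5 μM PGE2, ~EC80, 120 min at 37 °C after 15 min compound preincubation; test range 10 μM-2 nM or 1 μM-0.2 nM, duplicates, IC50 fitted.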

The next assay has as its target T2, PTGER4 (EP4) (Homo sapiens, UniProt P35408).
T2 construct: host or cells: HEK 293 (PathHunter PTGER4 b-arrestin cell line)
The assay can be described thus: hEP4 b-arrestin assay (PathHunter HEK 293 PTGER4 b-arrestin cells). The settings on record: antagonistic activity, beta-arrestin assay; read-out: hEP4 b-arr IC50. In a few lines: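 β-Arrestin recruitment to EP4 was read as enzyme-fragment-complementation chemiluminescence in stably transfected HEK 293 cells. After 15 min compound preincubation at 37 °C (ranges 10 μM–2 nM or 1 μM–0.2 nM), cells were stimulated 120 min with PGE2 at 20 nM, its EC80. IC50 values were fitted from duplicates, with repeat measurements averaged.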

A further assay has as its target T3, EP2 receptor (Homo sapiens, UniProt P43116).
T3 construct: SF295 glioblastoma cells express high endogenous EP2 and no EP4; host or cells: SF295 glioblastoma cells
The assay can be described thus: hEP2 cAMP assay (SF295 glioblastoma cells, HTRF cAMP, PGE2 stimulation). The settings on record: antagonistic activity. In a few lines:
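HTRF cAMP readout gave % cAMP relative to DMSO, fitted to IC50 with duplicate points. Compounds were preincubated 45 min at room temperature with EP2-expressing, EP4-negative SF295 cells in IBMX (2 mM)-containing buffer before a 30 min challenge with PGE2 at 75 nM final, its EC80.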
On the technique in general: Changes in cAMP serve as a functional read-out for many G protein-coupled receptors.

T3 sequence (P43116 whole entry): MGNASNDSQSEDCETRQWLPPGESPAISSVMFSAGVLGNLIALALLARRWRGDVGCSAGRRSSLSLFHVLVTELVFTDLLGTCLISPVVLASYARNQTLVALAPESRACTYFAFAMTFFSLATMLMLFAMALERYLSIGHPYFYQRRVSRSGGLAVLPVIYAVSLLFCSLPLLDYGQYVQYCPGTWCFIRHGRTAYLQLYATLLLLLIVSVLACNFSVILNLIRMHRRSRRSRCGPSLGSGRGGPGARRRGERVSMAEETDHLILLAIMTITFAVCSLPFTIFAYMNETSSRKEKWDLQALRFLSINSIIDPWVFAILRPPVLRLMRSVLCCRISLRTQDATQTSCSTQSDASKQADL
T1 sequence (P43116 whole entry): as above
T2 sequence (P35408 whole entry): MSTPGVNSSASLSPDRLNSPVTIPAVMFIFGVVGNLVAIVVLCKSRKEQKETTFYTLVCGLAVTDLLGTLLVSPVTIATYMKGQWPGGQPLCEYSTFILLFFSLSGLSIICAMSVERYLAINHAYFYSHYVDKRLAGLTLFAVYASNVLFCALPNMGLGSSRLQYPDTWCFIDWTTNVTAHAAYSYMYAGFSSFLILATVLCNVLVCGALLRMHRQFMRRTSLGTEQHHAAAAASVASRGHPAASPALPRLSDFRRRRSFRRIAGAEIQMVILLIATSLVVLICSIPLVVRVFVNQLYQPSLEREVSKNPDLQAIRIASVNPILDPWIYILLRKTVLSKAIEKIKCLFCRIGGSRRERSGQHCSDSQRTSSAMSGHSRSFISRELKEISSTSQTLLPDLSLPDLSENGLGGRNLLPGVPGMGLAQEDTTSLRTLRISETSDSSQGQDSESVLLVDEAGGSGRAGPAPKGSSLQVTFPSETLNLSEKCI

On to `CCSc1cc(-c2cc(NCCc3c(C)sc4ccccc34)ncn2)ccc1C(=O)O` [Example 43, 2-Ethylsulfanyl-4-{6-[2-(2-methyl-benzo[b]thiophen-3-yl)-ethylamino]-pyrimidin-4-yl}-benzoic acid], for which the IC50 on PTGER2 (EP2) turned out to be 3 nM; on PTGER4 (EP4), 1080 nM; on EP2 receptor, 4 nM.
Take `CCSc1cc(-c2cc(NCCc3c(C)oc4ccccc34)ncn2)ccc1C(=O)O` [Example 44, 2-Ethylsulfanyl-4-{6-[2-(2-methyl-benzofuran-3-yl)-ethylamino]-pyrimidin-4-yl}-benzoic acid]: the results for the IC50 on PTGER2 (EP2), on PTGER4 (EP4) and at EP2 receptor were 1 nM, 1020 nM and 4 nM, respectively.
As for `CCCc1cc(-c2cc(NCCc3c(C)sc4c(C)cc(F)cc34)ncn2)ccc1C(=O)O` [Example 45, 4-{6-[2-(5-Fluoro-2,7-dimethyl-benzo[b]thiophen-3-yl)-ethylamino]-pyrimidin-4-yl}-2-propyl-benzoic acid], the figures for the IC50 on PTGER2 (EP2), at PTGER4 (EP4) and on EP2 receptor were 20 nM, 57 nM and 48 nM, respectively.
As for `Cc1sc2c(C)cc(F)cc2c1CCNc1cc(-c2cc(C(F)(F)F)c(C(=O)O)s2)ncn1` [Example 46, 5-{6-[2-(5-Fluoro-2,7-dimethyl-benzo[b]thiophen-3-yl)-ethylamino]-pyrimidin-4-yl}-3-trifluoromethyl-thiophene-2-carboxylic acid], the figures for the IC50 at PTGER2 (EP2), on PTGER4 (EP4) and at EP2 receptor were 46 nM, 93 nM and 31 nM, respectively.
The like results for `CSc1cc(-c2cc(NCCc3c(C)sc4c(C)cccc34)ncn2)cc(F)c1C(=O)O` [Example 47, 4-{6-[2-(2,7-Dimethyl-benzo[b]thiophen-3-yl)-ethylamino]-pyrimidin-4-yl}-2-fluoro-6-methylsulfanyl-benzoic acid] were, in that order, 10 nM, 807 nM and 12 nM.
Regarding `CSc1cc(-c2cc(NCCc3c(C)sc4c(C)cccc34)ncn2)cc(Cl)c1C(=O)O` [Example 50, 2-Chloro-4-{6-[2-(2,7-dimethyl-benzo[b]thiophen-3-yl)-ethylamino]-pyrimidin-4-yl}-6-methylsulfanyl-benzoic acid], the IC50 at PTGER2 (EP2) amounted to 18 nM; at PTGER4 (EP4), 432 nM; against EP2 receptor, 13 nM.
For `CCOc1cc(-c2cc(NCCc3c(C)sc4c(C)cc(F)cc34)ncn2)sc1CC(=O)O` [Example 52, (3-Ethoxy-5-{6-[2-(5-fluoro-2,7-dimethyl-benzo[b]thiophen-3-yl)-ethylamino]-pyrimidin-4-yl}-thiophen-2-yl)-acetic acid], the IC50 at PTGER2 (EP2) was determined as 46 nM; at PTGER4 (EP4) it was 133 nM; on EP2 receptor, 95 nM.
Regarding `CCOc1cc(-c2cc(NCCc3c(C#N)sc4c(C)cc(F)cc34)ncn2)ccc1C(=O)O` [Example 53, 4-{6-[2-(2-Cyano-5-fluoro-7-methyl-benzo[b]thiophen-3-yl)-ethylamino]-pyrimidin-4-yl}-2-ethoxy-benzoic acid], the IC50 on PTGER2 (EP2) was found to be 9 nM; on PTGER4 (EP4), 34 nM; on EP2 receptor it was 7 nM.
With `CCOc1cc(-c2cc(NCCc3c(C#N)sc4c(OC)cccc34)ncn2)ccc1C(=O)O` [Example 54, 4-{6-[2-(2-Cyano-7-methoxy-benzo[b]thiophen-3-yl)-ethylamino]-pyrimidin-4-yl}-2-ethoxy-benzoic acid], the IC50 at PTGER2 (EP2) is 194 nM; at PTGER4 (EP4) it was 60 nM; at EP2 receptor it was 77 nM.
As for `CCOc1cc(-c2cc(NCCc3c(C)sc4c(OC)ccc(F)c34)ncn2)ccc1C(=O)O` [Example 55, 2-Ethoxy-4-{6-[2-(4-fluoro-7-methoxy-2-methyl-benzo[b]thiophen-3-yl)-ethylamino]-pyrimidin-4-yl}-benzoic acid], the IC50 is 15 nM on PTGER2 (EP2), 117 nM at PTGER4 (EP4) and 40 nM against EP2 receptor.
`CCOc1cc(-c2cc(NCCc3c(C)sc4c(C)cc(F)cc34)ncn2)ccc1C(=O)O` [Example 56, 2-Ethoxy-4-{6-[2-(5-fluoro-2,7-dimethyl-benzo[b]thiophen-3-yl)-ethylamino]-pyrimidin-4-yl}-benzoic acid]: the IC50 on PTGER2 (EP2) came to 13 nM; at PTGER4 (EP4), 47 nM; on EP2 receptor, 19 nM.
Regarding `CCOc1cc(-c2cc(NCCc3c(C)sc4c(OC)ccc(Cl)c34)ncn2)ccc1C(=O)O` [Example 57, 4-{6-[2-(4-Chloro-7-methoxy-2-methyl-benzo[b]thiophen-3-yl)-ethylamino]-pyrimidin-4-yl}-2-ethoxy-benzoic acid], the IC50 on PTGER2 (EP2) was 17 nM; on PTGER4 (EP4), 287 nM; against EP2 receptor, 44 nM.
For `CCOc1cc(-c2cc(NCCc3c(Br)sc4c(C)cc(F)cc34)ncn2)ccc1C(=O)O` [Example 58, 4-{6-[2-(2-Bromo-5-fluoro-7-methyl-benzo[b]thiophen-3-yl)-ethylamino]-pyrimidin-4-yl}-2-ethoxy-benzoic acid], the IC50 at PTGER2 (EP2) amounted to 12 nM; on PTGER4 (EP4) it was 454 nM; at EP2 receptor it was 17 nM.
In the case of `CCOc1cc(-c2cc(NCCc3c(Cl)sc4c(C)cc(F)cc34)ncn2)ccc1C(=O)O` [Example 59, 4-{6-[2-(2-Chloro-5-fluoro-7-methyl-benzo[b]thiophen-3-yl)-ethylamino]-pyrimidin-4-yl}-2-ethoxy-benzoic acid], the IC50 on PTGER2 (EP2) was determined as 15 nM; on PTGER4 (EP4), 625 nM; at EP2 receptor, 12 nM.
Regarding `CCOc1cc(-c2cc(NCCc3c(C)sc4c(C)cccc34)ncn2)ccc1C(=O)O` [Example 60, 4-{6-[2-(2,7-Dimethyl-benzo[b]thiophen-3-yl)-ethylamino]-pyrimidin-4-yl}-2-ethoxy-benzoic acid], the IC50 at PTGER2 (EP2) was 7 nM; at PTGER4 (EP4) it was 372 nM; against EP2 receptor, 15 nM.
As to `CCOc1cc(-c2cc(NCCc3c(C)sc4c(C)ccc(F)c34)ncn2)ccc1C(=O)O` [Example 61, 2-Ethoxy-4-{6-[2-(4-fluoro-2,7-dimethyl-benzo[b]thiophen-3-yl)-ethylamino]-pyrimidin-4-yl}-benzoic acid], the values for the IC50 on PTGER2 (EP2), on PTGER4 (EP4) and on EP2 receptor were 22 nM, 245 nM and 60 nM, respectively.
Consider `CCOc1cc(-c2cc(NCCc3c(C)sc4c(C)c(F)ccc34)ncn2)ccc1C(=O)O` [Example 62, 2-Ethoxy-4-{6-[2-(6-fluoro-2,7-dimethyl-benzo[b]thiophen-3-yl)-ethylamino]-pyrimidin-4-yl}-benzoic acid], for which the IC50 on PTGER2 (EP2) came to 12 nM; at PTGER4 (EP4), 499 nM; against EP2 receptor it was 14 nM.
The matching figures for `CCOc1cc(-c2cc(NCCc3c(C)sc4c(Cl)ccc(Cl)c34)ncn2)ccc1C(=O)O` [Example 63, 4-{6-[2-(4,7-Dichloro-2-methyl-benzo[b]thiophen-3-yl)-ethylamino]-pyrimidin-4-yl}-2-ethoxy-benzoic acid]: 27 nM, 461 nM and 64 nM.
Turning to `CCOc1cc(-c2cc(NCCc3c(C)oc4c(C)cc(Cl)cc34)ncn2)ccc1C(=O)O` [Example 64, 4-{6-[2-(5-Chloro-2,7-dimethyl-benzofuran-3-yl)-ethylamino]-pyrimidin-4-yl}-2-ethoxy-benzoic acid], the IC50 on PTGER2 (EP2) came out at 11 nM; at PTGER4 (EP4), 522 nM; on EP2 receptor, 7 nM.
As to `CCOc1cc(-c2cc(NCCc3c(C)sc4c(Cl)cc(F)cc34)ncn2)ccc1C(=O)O` [Example 65, 4-{6-[2-(7-Chloro-5-fluoro-2-methyl-benzo[b]thiophen-3-yl)-ethylamino]-pyrimidin-4-yl}-2-ethoxy-benzoic acid], the IC50 on PTGER2 (EP2) worked out at 16 nM; at PTGER4 (EP4), 428 nM; at EP2 receptor, 15 nM.
Take `CCOc1cc(-c2cc(NCCc3c(C)sc4c(C)ccc(Cl)c34)ncn2)ccc1C(=O)O` [Example 66, 4-{6-[2-(4-Chloro-2,7-dimethyl-benzo[b]thiophen-3-yl)-ethylamino]-pyrimidin-4-yl}-2-ethoxy-benzoic acid]: the IC50 is 27 nM on PTGER2 (EP2), 407 nM on PTGER4 (EP4) and 101 nM against EP2 receptor.
`CCOc1cc(-c2cc(NCCc3c(C)oc4c(OC)ccc(F)c34)ncn2)ccc1C(=O)O` [Example 67, 2-Ethoxy-4-{6-[2-(4-fluoro-7-methoxy-2-methyl-benzofuran-3-yl)-ethylamino]-pyrimidin-4-yl}-benzoic acid]: the IC50 worked out at 73 nM on PTGER2 (EP2), 369 nM at PTGER4 (EP4) and 142 nM at EP2 receptor.
For `CCOc1cc(-c2cc(NCCc3c(C)oc4c(Cl)cccc34)ncn2)ccc1C(=O)O` [Example 68, 4-{6-[2-(7-Chloro-2-methyl-benzofuran-3-yl)-ethylamino]-pyrimidin-4-yl}-2-ethoxy-benzoic acid], the IC50 on PTGER2 (EP2) worked out at 14 nM; at PTGER4 (EP4) it was 659 nM; against EP2 receptor, 39 nM.
Take `CCOc1cc(-c2cc(NCCc3c(C)oc4c(C)cc(F)cc34)ncn2)ccc1C(=O)O` [Example 69, 2-Ethoxy-4-{6-[2-(5-fluoro-2,7-dimethyl-benzofuran-3-yl)-ethylamino]-pyrimidin-4-yl}-benzoic acid]: the IC50 at PTGER2 (EP2) amounted to 24 nM; on PTGER4 (EP4), 668 nM; against EP2 receptor, 74 nM.

The IC50 is the midpoint of a concentration-inhibition curve.
